Data as given in the supplement of paper PMC10307832.

Tests used:
Experiment in all cases: relative viability (nuclei count vs DMSO), 5 days (fraction); higher = more cells survive
[1] = compound: O=C(C[C@H]1NCCC[C@@H]1O)Cn1cnc2cc(Br)c(Cl)cc2c1=O (racemic) [Halofuginone] + NC(=O)Nc1cc(-c2cccc(F)c2)sc1C(=O)N[C@H]1CCCNC1 [AZD7762] (partner 0.2 µM)
Method in brief: (§1)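 One day after seeding in 1536-well plates, lung cancer cell lines were dosed by pin tool. Dosing was either single-drug or a fixed anchor-drug dose plus five library-drug doses (not always all listed) in √10 steps. After 5 days, nuclei were stained in one fix-and-stain step and counted on 4× images, and relative viability is the nuclei count of treated wells over that of vehicle wells, given as the median of duplicate plates.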

[2] = compound: O=C(C[C@H]1NCCC[C@@H]1O)Cn1cnc2cc(Br)c(Cl)cc2c1=O (racemic) [Halofuginone] + COc1cc2c(Oc3ccc(NC(=O)C4(C(=O)Nc5ccc(F)cc5)CC4)cc3F)ccnc2cc1OCCCN1CCOCC1 [Foretinib] (partner 0.25 µM)
Method in brief: as §1

[3] = compound: O=C(C[C@H]1NCCC[C@@H]1O)Cn1cnc2cc(Br)c(Cl)cc2c1=O (racemic) [Halofuginone] + O=C(CCCCCCC(=O)Nc1ccccc1)NO [Vorinostat] (partner 1 µM)
Method in brief: as §1

[4] = compound: O=C(C[C@H]1NCCC[C@@H]1O)Cn1cnc2cc(Br)c(Cl)cc2c1=O (racemic) [Halofuginone] + CS(=O)(=O)CCNCc1ccc(-c2ccc3ncnc(Nc4ccc(OCc5cccc(F)c5)c(Cl)c4)c3c2)o1 [Lapatinib] (partner 2 µM)
Method in brief: as §1

Row | Cell Line | relative viability ([1]; first compound 0.001 µM) | relative viability ([1]; first compound 0.003162 µM) | relative viability ([1]; first compound 0.01 µM) | relative viability ([1]; first compound 0.03162 µM) | relative viability ([1]; first compound 0.1 µM) | relative viability ([2]; first compound 0.001 µM) | relative viability ([2]; first compound 0.003162 µM) | relative viability ([2]; first compound 0.01 µM) | relative viability ([2]; first compound 0.03162 µM) | relative viability ([2]; first compound 0.1 µM) | relative viability ([3]; first compound 0.001 µM) | relative viability ([3]; first compound 0.003162 µM) | relative viability ([3]; first compound 0.01 µM) | relative viability ([3]; first compound 0.03162 µM) | relative viability ([3]; first compound 0.1 µM) | relative viability ([4]; first compound 0.001 µM) | relative viability ([4]; first compound 0.003162 µM) | relative viability ([4]; first compound 0.01 µM) | relative viability ([4]; first compound 0.03162 µM) | relative viability ([4]; first compound 0.1 µM)
1 | HCC-366 | 0.282 | 0.321 | 0.323 | 0.336 | 0.317 | 0.952 | 0.973 | 0.876 | 1.02 | 0.514 | 0.446 | 0.347 | 0.319 | 0.233 | 0.0907 | 1.05 | 1.17 | 0.979 | 1.08 | 0.542
2 | HCC-827 | 0.242 | 0.183 | 0.217 | 0.2 | 0.253 | 1.03 | 0.974 | 0.962 | 1.1 | 0.947 | 0.764 | 0.777 | 0.795 | 0.869 | 0.87 | 0.192 | 0.189 | 0.236 | 0.233 | 0.202
3 | IA-LM |  |  |  |  |  | 1.29 | 1.03 | 1.08 | 0.982 | 0.07 | 1.02 | 0.995 | 0.902 | 0.92 | 0.878 | 0.85 | 0.781 | 0.579 | 0.518 | 0.0907
4 | LCLC-103H | 0.808 | 0.851 | 0.784 | 0.793 | 0.695 | 0.871 | 0.768 | 0.813 | 0.749 | 0.848 | 0.865 | 0.807 | 0.803 | 0.723 | 0.719 |  |  |  |  | 
5 | NCI-H441 | 1.13 | 1.35 | 1.18 | 1.3 | 0.599 | 1.08 | 1.03 | 0.823 | 0.643 | 0.362 | 0.799 | 0.936 | 0.863 | 0.8 | 0.49 |  |  |  |  | 
6 | NCI-H520 |  |  |  |  |  | 0.808 | 0.798 | 0.767 | 0.58 | 0.424 | 0.644 | 0.711 | 0.551 | 0.612 | 0.309 | 0.98 | 0.811 | 0.96 | 0.704 | 0.401
7 | NCI-H522 | 0.969 | 0.948 | 0.974 | 0.852 | 0.813 |  |  |  |  |  | 0.833 | 0.829 | 0.926 | 0.951 | 0.976 |  |  |  |  | 
8 | NCI-H661 |  |  |  |  |  | 1.05 | 1.01 | 1 | 0.815 | 0.6 | 0.773 | 0.803 | 0.682 | 0.549 | 0.491 | 0.558 | 0.546 | 0.424 | 0.508 | 0.366
9 | NCI-H1299 |  |  |  |  |  | 1.13 | 1.13 | 1.07 | 1.09 | 0.561 |  |  |  |  |  | 0.995 | 1 | 0.916 | 0.941 | 0.65
10 | NCI-H1563 |  |  |  |  |  | 0.985 | 0.879 | 0.905 | 0.662 | 0.509 |  |  |  |  |  | 0.757 | 0.853 | 0.879 | 0.627 | 0.506
11 | NCI-H1623 |  |  |  |  |  | 0.888 | 0.895 | 0.954 | 0.876 | 0.536 |  |  |  |  |  |  |  |  |  | 
12 | NCI-H1648 | 0.742 | 0.608 | 0.631 | 0.854 | 0.694 |  |  |  |  |  | 0.624 | 0.488 | 0.522 | 0.415 | 0.61 |  |  |  |  | 
